US10894808B2, “Polypeptide ligands specific for plasma kallikrein” (BicycleRD Limited, priority 2013, dated 2021)
Read-outs that look alike come from different tables or passages of the source. *1 amine or outer side, *2 acyl side, *3 side chain or, on linkers, in order; H or OH if unused. Where a SMILES comes first, the peptide text is derived from it. Bridges are numbered along the chain shown (N, C = ends). [ ]: non-standard residue; d: D form. TBMB = c1c(C[*:1])cc(C[*:3])cc1C[*:2]; Sar = CNCC(=O)O

Columns and labels:
human plasma kallikrein = molecular target: T1, human plasma kallikrein (Homo sapiens, UniProt P03952); assay: Functional enzyme assay, inhibition of human plasma kallikrein (Z-PheArg-AMC substrate); type: biochemical; conditions: Table 1, synthetic peptides; read-out: Human (Ki)
T1 construct: purchased Stratech, UK
T1 sequence (P03952 391-638 limits assumed): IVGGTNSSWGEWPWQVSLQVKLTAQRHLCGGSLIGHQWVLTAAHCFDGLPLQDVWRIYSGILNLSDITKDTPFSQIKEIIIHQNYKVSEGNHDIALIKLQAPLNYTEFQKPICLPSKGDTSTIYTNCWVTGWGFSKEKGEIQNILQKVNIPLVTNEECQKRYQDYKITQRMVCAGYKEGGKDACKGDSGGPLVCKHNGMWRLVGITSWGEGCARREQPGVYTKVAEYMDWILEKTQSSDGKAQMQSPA
T1 sequence (P03952 20-390 partner limits assumed): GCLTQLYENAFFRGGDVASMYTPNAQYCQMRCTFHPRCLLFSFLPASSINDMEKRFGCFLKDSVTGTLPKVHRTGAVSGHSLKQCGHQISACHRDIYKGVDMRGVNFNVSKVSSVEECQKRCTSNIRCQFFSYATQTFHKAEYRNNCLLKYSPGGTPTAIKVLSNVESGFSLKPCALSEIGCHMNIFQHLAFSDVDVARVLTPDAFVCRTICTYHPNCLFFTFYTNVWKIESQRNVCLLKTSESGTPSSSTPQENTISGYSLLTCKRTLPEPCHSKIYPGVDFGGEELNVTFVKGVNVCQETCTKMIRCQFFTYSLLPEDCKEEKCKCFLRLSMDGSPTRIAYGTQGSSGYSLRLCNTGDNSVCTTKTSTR
Description: (§1) Functional enzyme assays were conducted in 10 mM Tris HCl, 150 mM NaCl, 10 mM MgCl2, 1 mM CaCl2 and 1 mg/mL BSA (all Sigma UK) pH 7.4 at 25° C. in solid black 96 or 384 well plates. […] Release of AMC was measured using a Pherastar FS (BMG Labtech), excitation 360 nm, emission 460 nm. The rate of the linear phase of the reaction, typically 5 to 45 minutes, was calculated in MARS data analysis software (BMG labtech). The rate was then used to calculate the IC50 and Ki in Prism (GraphPad). A four parameter inhibition non-linear regression equation was used to calculate the IC50. […]
(§2) Peptides were dissolved as the TFA-salts in their powder form, and stock solutions were usually prepared in water. All solutions were centrifuged and filtered ([…] syringe filters) prior to absorption measurement at 280 nm. Extinction coefficients were calculated based on the Trp/Tyr content of the peptide, and that of TMB (the TMB core, when contained in a peptide, has an extinction coefficient of ˜300 M^−1 cm^−1).

[1] = Plasma stability profiling Method #1 (35% plasma, MALDI-TOF window of detection); type: in vitro ADME; conditions: Method #1, 35% rat or human plasma, 37° C., qualitative
Description: A rapid plasma stability profiling assay was developed that employed mass spectrometric detection (MALDI-TOF, Voyager DE, Applied Biosystems) of the parent mass, until the time when the parent peptide mass was no longer observable. Specifically, 200 μM of peptide was incubated in the presence of 35% rat or human plasma (Sera labs, using citrate as anticoagulant) at 37° C., which was supplemented with 1×PBS (derived from a 10×PBS Stock, Sigma). At various time points (i.e. t=0, 3, 24 hrs, henceafter daily up to 10 days), 2 μL of sample was added to 18 μL of 30 mM ammonium bicarbonate in a 1:1 mixture of acetonitrile:H2O. Samples were frozen at −80° C. until the time of analysis. For mass spectrometric analysis that determines the approximate detection window of the peptide, the acetonitrile:H2O-diluted sample of a given time point was spotted directly (0.7 μL) onto the MALDI plate. Matrix (alpha-cyanocinnamic acid, Sigma, prepared as a saturated solution in 1:1 acetonitrile:water containing 0.1% trifluoroacetic acid) was layered over the sample (1 μL). At a similar laser intensity setting on the MALDI TOF, the time could then be determined until parent peptide was no longer detectable. It should be noted that this is a qualitative assay serves to detect relative changes in plasma stability.

rat plasma kallikrein = molecular target: T2, rat plasma kallikrein (Rattus norvegicus, UniProt P14272); assay: Functional enzyme assay, inhibition of rat plasma kallikrein (Z-PheArg-AMC substrate); type: biochemical; conditions: Table 1, synthetic peptides; read-out: Rat (Ki)
T2 construct: polyhistidine tag followed by proTEV cleavage site (pro-peptide) (N, cleaved yes); made in house; host or cells: HEK-293 (suspension-adapted), pEXPR-IBA42 vector
T2 sequence (P14272 391-638 limits assumed): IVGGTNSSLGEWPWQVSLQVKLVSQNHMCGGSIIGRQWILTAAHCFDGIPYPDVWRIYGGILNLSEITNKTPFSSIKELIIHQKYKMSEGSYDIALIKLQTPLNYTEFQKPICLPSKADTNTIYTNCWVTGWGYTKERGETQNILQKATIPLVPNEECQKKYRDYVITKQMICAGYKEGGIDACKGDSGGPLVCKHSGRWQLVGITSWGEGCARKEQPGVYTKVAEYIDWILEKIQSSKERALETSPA
Description: as §1, §2

[2] = Aqueous solubility (qualitative); type: physicochemical; conditions: in words
rabbit kallikrein = rabbit kallikrein (Oryctolagus cuniculus, UniProt G1T127); assay: Functional enzyme assay, inhibition of rabbit kallikrein; type: biochemical
Chain of rabbit kallikrein (G1T127 20-629): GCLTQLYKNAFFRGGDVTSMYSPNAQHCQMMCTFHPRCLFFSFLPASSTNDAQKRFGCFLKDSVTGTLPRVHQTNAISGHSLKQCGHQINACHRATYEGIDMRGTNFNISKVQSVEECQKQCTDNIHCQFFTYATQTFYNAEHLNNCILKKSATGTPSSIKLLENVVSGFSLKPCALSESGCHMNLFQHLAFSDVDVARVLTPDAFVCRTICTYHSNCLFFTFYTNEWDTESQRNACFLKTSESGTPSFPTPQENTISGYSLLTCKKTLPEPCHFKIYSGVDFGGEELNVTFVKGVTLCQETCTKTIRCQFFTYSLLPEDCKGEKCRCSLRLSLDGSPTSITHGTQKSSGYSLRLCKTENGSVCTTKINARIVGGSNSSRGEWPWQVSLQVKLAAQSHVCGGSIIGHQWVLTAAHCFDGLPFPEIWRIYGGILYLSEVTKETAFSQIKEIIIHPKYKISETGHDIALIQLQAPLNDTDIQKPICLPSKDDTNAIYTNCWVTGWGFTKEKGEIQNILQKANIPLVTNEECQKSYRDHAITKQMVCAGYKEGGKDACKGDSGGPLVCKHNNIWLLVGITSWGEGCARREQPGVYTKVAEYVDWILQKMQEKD
Description: as §1, §2

[3] = Plasma stability profiling Method #2 (95% plasma, MALDI-TOF), rat plasma; type: in vitro ADME; conditions: qualitative, sampled up to 46 hrs
Description: (§3) To obtain stability data more rapidly, peptides were also assessed in 95% plasma. Here, PBS was omitted, and a 1-5 mM peptide stock (in DMSO) was directly diluted into plasma (i.e. 2.5 μL stock into 47.5 μL plasma), giving a final concentration of 50 μM. 5 μL samples were taken at appropriate time points and frozen at −80° C. For analysis, the samples were defrosted, mixed with 25 μL of 3:3:1 acetonitrile:methanol:water, and centrifuged at 13 k for 5 min. 5 μL of the peptide-containing supernatant was aspirated and mixed with 30 mM ammonium bicarbonate in a 1:1 mixture of acetonitrile:H2O. 1 μL of this was then spotted on the MALDI plate and analysed as described above. As above, it should be noted that this is a qualitative assay serves to detect relative changes in plasma stability.

[4] = Plasma stability profiling Method #2 (95% plasma, MALDI-TOF), human plasma; type: in vitro ADME; conditions: qualitative, sampled up to 46 hrs
Description: as §3

[5] = molecular target: T3, biotinylated human plasma kallikrein (Homo sapiens, UniProt P03952); assay: Homogeneous plate-based screening assay of TBMB-cyclised phage clones (signal:background); type: binding; conditions: Table 4, 06-259 affinity-matured library
T3 construct: The human kallikrein is non-recombinant and therefore the heavy chain is present; purchased Innovative Research, Novi, Mich., USA IHPKA; host or cells: from human plasma
T3 sequence (P03952 391-638 limits assumed): as the sequence (P03952 391-638 limits assumed) above
T3 sequence (P03952 20-390 partner limits assumed): as the sequence (P03952 20-390 partner limits assumed) above
Description: Assay of binding of individual clones: Library transformant colonies were picked at random and grown as individual cultures in 2TY broth containing selective antibiotic. The picked colonies were DNA-sequenced using a QIAgen PyroMark Q96 DNA sequencer to reveal the amino-acid substitution present in each clone. Where isolated, a clone of each unique substitution was assayed for human plasma kallikrein binding as follows. The phage-containing supernatant was harvested from the culture and phage were cyclised with tris bromomethyl benzene (TBMB) based on the methods of Heinis et al (Nature Chemical Biology vol. 5 pp 502-507 (2009)). The purified phage from this process were assayed for binding to biotinylated human plasma kallikrein using a homogeneous plate-based binding assay; assay read-out measured on a BMG Labtech Pherastar FS plate reader. The quantitative binding data from triplicate assay samples was averaged (mean) and expressed as signal:background (where background was a sample assayed with no target material). The signal:background was expressed as a % of the parallel parent sample. Error bars denote standard deviation of the mean. Assays shown are representative of at least 2 independent experiments. The assay data was correlated with the peptide sequences. Substitutions marked in grey were not tested (a clone was not isolated from the random library sampling). A sample of a non-binding (arbitrary) bicycle was assayed in parallel to illustrate the assay baseline.
Assay of binding of individual clones: Library transformant colonies, or selection output colonies, were picked and grown as individual cultures in 2TY broth containing selective antibiotic. The picked colonies were DNA-sequenced using a QIAgen PyroMark Q96 DNA sequencer to reveal the amino-acid substitution present in each clone, and were assayed for human plasma kallikrein binding as follows. The phage-containing supernatant was harvested from the culture and phage were cyclised with tris-bromomethylbenzene (TBMB) based on the methods of Heinis et al (Nature Chemical Biology vol. 5 pp 502-507 (2009)). The purified phage from this process were assayed for binding to biotinylated human plasma kallikrein using a homogeneous plate-based binding assay; assay read-out measured on a BMG Labtech Pherastar FS plate reader. The quantitative binding data from duplicate assay samples was averaged (mean) and expressed as signal:background. Assay data shown is representative of at least 2 independent experiments. The assay data was correlated with the peptide sequences.

[6] = Intravenous pharmacokinetics in rat; type: in vivo
Description: Peptides used for the pharmacokinetic studies in Example 4 were lyophilised from 10 mM HCl in water 3 times to afford the hydrochloride salts of the compounds. Solutions were dosed by intravenous bolus at 1 mg/mL in 50 mM Hepes pH 7.0, 5% glycerol, 1.9% DMSO for two compounds (Ac-(06-550) Aze3 HArg5 Sar3-(D-Arg2)) and (06-259-02)-Sar3-(D-Arg2)) at 5 mg/kg in Spraguely Dawely rats. Serial blood samples (˜0.2 mL) were taken into EDTA tubes at the indicated time points, and plasma was separated by centrifugation, and frozen at −20 C for analysis. Employing standard bioanalytical techniques, plasma samples were then analysed and quantified for parent remaining compound using a Waters, Xevo TQS LC-MS. PK parameters were determined using the software package PK Solutions 2.0 from Summit Research Services.
Peptides Ac-(06-550)-Sar3-(D-Arg)2Aze3 HArg5 (which contains the stabilising and affinity enhancing modifications Aze3 and HArg5, and a solubilising C-terminal extension Sar3-(D-Arg)2) (SEQ ID NO: 98) and Ac-(06-259-02)-Sar3-(D-Arg)2 were selected for pharmacokinetic assessment in rat. Peptides were injected intravenously in buffered solution at 1 mg/mL at 5 mg/kg Sprague Dawley rats, and blood was sampled and analysed for peptide concentrations at a number of time points post injection.

[7] = system: carrageenan-induced paw oedema; assay: Carrageenan-induced paw oedema in rat; type: in vivo; conditions: peptides 15 mg/kg ip, indomethacin 5 mg/kg ip, paw volume at 1, 2, 4, 6 h, p<0.001
Description: In this analysis, peptide Ac-(06-259-02)-Sar3-(D-Arg)2 (referred to in this study as Bicycle 3; see Example 2 herein) was assessed comparatively against the peptide Ac-(06-34-18) Phe2 Aze3 Tyr4 HArg5 Ala(ψCH2NH)6 (referred to in this study as Bicycle 2 and which is disclosed in Table 26b and FIG. 22 of PCT/EP2014/057440). Inflammation was induced in male Sprague-Dawley rats (n=10 per group) by injection of 100 μL of 1% carrageenan solution in the subplantar region of the right hind paw. Animals received treatment with the peptides and indomethacin according to Table 10:
At 1, 2, 4 and 6 hours after carrageenan administration, paw volume was measured by water displacement method. Statistical analysis was conducted using 2-way ANOVA with repeated measures (GraphPad Prism).

## CC[C@H](C)[C@@H]1NC(=O)[C@H](CC(C)C)NC(=O)[C@H]([C@@H](C)O)NC(=O)[C@@H]2CSCc3cc(cc(c3)CSC[C@@H](C(=O)N[C@@H](C)C(N)=O)NC(=O)[C@H]([C@@H](C)O)NC(=O)[C@H]([C@@H](C)CC)NC(=O)[C@H](CC(N)=O)NC1=O)CSC[C@H](NC(=O)[C@H](C)N)C(=O)N[C@@H](CCCNC(=N)N)C(=O)N[C@@H](CC(N)=O)C(=O)N[C@@H](Cc1ccc(O)cc1)C(=O)N[C@@H](Cc1c[nH]c3ccccc13)C(=O)N[C@@H](CC(N)=O)C(=O)N1CCC[C@H]1C(=O)N2 [06-255] (H-ACRNYWNPCTLINITCA-NH2; linker 2-9-16 via TBMB; N-terminus and C-terminus assumed)
Human plasma kallikrein
  Ki: 0.0034 µM
[1]
  window of detection of parent peptide: up to 10 days
Rat plasma kallikrein
  Ki: 0.0189 µM
[2]
  aqueous solubility: poor solubility profile
Rabbit kallikrein; Table 1, synthetic peptides, read-out: Rabbit (Ki)
  Ki: 0.342 µM
Rabbit kallikrein; Table 5, read-out: Rabbit (Ki)
  Ki: 0.342 µM

## CC(C)C[C@@H]1NC(=O)[C@@H]2CCCN2C(=O)[C@H](C)NC(=O)[C@H](CC(=O)O)NC(=O)[C@H](Cc2c[nH]c3ccccc23)NC(=O)[C@@H]2CCCN2C(=O)[C@@H]2CSCc3cc(cc(c3)CSC[C@@H](C(=O)N[C@@H](C)C(N)=O)NC1=O)CSC[C@H](NC(=O)[C@H](C)N)C(=O)N[C@@H](CC(N)=O)C(=O)N[C@@H]([C@@H](C)O)C(=O)N[C@@H](Cc1c[nH]c3ccccc13)C(=O)N[C@@H](CC(N)=O)C(=O)N1CCC[C@H]1C(=O)N[C@@H](Cc1c[nH]c3ccccc13)C(=O)N2 [06-259-02] (H-ACNTWNPWCPWDAPLCA-NH2; linker 2-9-16 via TBMB; N-terminus and C-terminus assumed)
[3]
  comparative stability in rat plasma: significantly more stable
[4]
  comparative stability in human plasma: significantly more stable
[5]
  S:B (Signal:Background): 43.49
[1]
  window of detection of parent peptide: up to 10 days
[2]
  aqueous solubility: poor solubility profile
[6]; Sprague-Dawley, plasma, text b258, rat, iv 5 mg/kg
  clearance: 0.42 L/h/kg
Rabbit kallikrein; Table 5, read-out: Rabbit (Ki)
  Ki: 1.45 µM

## CC[C@H](C)[C@@H]1NC(=O)[C@H](CC(=O)O)NC(=O)[C@@H]2CCCN2C(=O)[C@H](Cc2ccc(O)cc2)NC(=O)[C@H](Cc2ccc(O)cc2)NC(=O)[C@H](C(C)C)NC(=O)[C@@H]2CSCc3cc(cc(c3)CSC[C@H](N)C(=O)N[C@@H](CO)C(=O)N[C@@H](Cc3ccccc3)C(=O)N3CCC[C@H]3C(=O)N[C@@H](Cc3ccc(O)cc3)C(=O)N[C@@H](CCCNC(=N)N)C(=O)N2)CSC[C@@H](C(N)=O)NC1=O [06-550] (H-CSFPYRCVYYPDIC-NH2; linker 1-7-14 via TBMB; N-terminus assumed)
[2]
  aqueous solubility: significantly reduced aqueous solubility
[6]; in vivo, text b258, rat, iv 5 mg/kg
  clearance: 1.02 L/h/kg

## CC(=O)N[C@H]1CSCc2cc3cc(c2)CSC[C@H](NC(=O)[C@H](Cc2c[nH]c4ccccc24)NC(=O)[C@@H]2CCCN2C(=O)[C@H](CC(N)=O)NC(=O)[C@H](Cc2c[nH]c4ccccc24)NC(=O)[C@H]([C@@H](C)O)NC(=O)[C@H](CC(N)=O)NC1=O)C(=O)N1CCC[C@H]1C(=O)N[C@@H](Cc1c[nH]c2ccccc12)C(=O)N[C@@H](CC(=O)O)C(=O)N[C@@H](C)C(=O)N1CCC[C@H]1C(=O)N[C@@H](CC(C)C)C(=O)N[C@H](C(=O)N[C@@H](C)C(=O)N(C)CC(=O)N(C)CC(=O)N(C)CC(=O)N[C@H](CCCNC(=N)N)C(=O)N[C@H](CCCNC(=N)N)C(N)=O)CSC3 [Ac-(06-259-02)-Sar3-(DArg2)] (Ac-CNTWNPWCPWDAPLCA[Sar][Sar][Sar][dR][dR]-NH2; linker 1-8-15 via TBMB)
[7]
  effect on paw swelling induced by carrageenan: inhibited the paw swelling induced by carrageenan at all timepoints
[6]; FIG. 4, rat, iv, in words
  stability in the rat circulation: marked stability in the rat circulation
[6]; in vivo, Table 8, Sprague Dawley rat, iv 5 mg/kg
  clearance: 0.432 L/h/kg
[6]; in vivo, Table 8, Sprague Dawley rat, iv 5 mg/kg, read-out: Vss
  Vd: 0.8 L/kg
[6]; in vivo, Table 8, Sprague Dawley rat, iv 5 mg/kg, read-out: t1/2 elimination
  half-life: 1.3 h
Rabbit kallikrein
  Ki: 1.45 µM

## COc1ccc2c(c1)c(CC(=O)O)c(C)n2C(=O)c1ccc(Cl)cc1 [indomethacin, reference compound]
[7]
  effect on paw swelling induced by carrageenan: highly significant reduction in paw swelling
